The record followed here is the PolyMetriX glass transition set.

In turn, `*C(=O)c1ccc(Oc2ccc(C3(c4ccc(Oc5ccc(C(=O)c6ccc7c(c6)C(=O)N(c6ccc(Cc8ccc(N9C(=O)c%10ccc(*)cc%10C9=O)cc8)cc6)C7=O)cc5)cc4)OC(=O)c4ccccc43)cc2)cc1` (repeat unit) registered a glass transition temperature of 268.00 °C.

For `*C(=O)c1ccc2nc(-c3ccc(-c4nc5ccc(*)cc5nc4-c4ccccc4)cc3)c(-c3ccccc3)nc2c1` (repeat unit), the glass transition temperature was determined as 325.00 °C.

In the case of `*C(=O)c1ccc2nc(-c3ccccc3)c(-c3ccc(N4C(=O)c5ccc(C(=O)c6ccc7c(c6)C(=O)N(c6ccc(-c8nc9cc(*)ccc9nc8-c8ccccc8)cc6)C7=O)cc5C4=O)cc3)nc2c1` (repeat unit), the glass transition temperature is 255.00 °C.

Compound `*CCCCCCNC(=O)/C=C(\C)C(=O)N*` (repeat unit) yielded a glass transition temperature of 94.00 °C.

With `*Oc1ccc(/C(=N/c2ccc(/N=C(\c3ccccc3)c3ccc(Oc4ccc(C(C)(C)c5ccc(*)cc5)cc4)cc3)cc2)c2ccccc2)cc1` (repeat unit), the glass transition temperature came out at 161.00 °C.

Take `*Oc1ccc(/C=N/c2ccc(/N=C/c3ccc(Oc4ccc(C(c5ccccc5)(c5ccccc5)c5ccc(*)cc5)cc4)cc3)cc2)cc1` (repeat unit): the glass transition temperature was determined as 230.00 °C.

The compound `*Oc1ccc(/N=C/c2ccc(Oc3ccc(C(C)(C)c4ccc(Oc5ccc(/C=N/c6ccc(Oc7ccc(-c8ccc(*)cc8)cc7)cc6)cc5)cc4)cc3)cc2)cc1` (repeat unit) had a glass transition temperature of 120.00 °C.

`*Oc1ccc(/N=C/c2ccc(Oc3ccc(C(c4ccc(Oc5ccc(/C=N/c6ccc(Oc7ccc(-c8ccc(*)cc8)cc7)cc6)cc5)cc4)(C(F)(F)F)C(F)(F)F)cc3)cc2)cc1` (repeat unit) yielded a glass transition temperature of 128.00 °C.

`*Oc1ccc(/N=C/c2ccc(Oc3ccc(C(c4ccccc4)(c4ccccc4)c4ccc(Oc5ccc(/C=N/c6ccc(*)cc6)cc5)cc4)cc3)cc2)cc1` (repeat unit) gave a glass transition temperature of 211.00 °C.

On to `*Oc1ccc(/N=N/c2ccc(Oc3ccc(C(C)(C)c4ccc(*)cc4)cc3)cc2)cc1` (repeat unit), for which the glass transition temperature is 175.00 °C.

`*Oc1ccc(C(C)(C)c2ccc(Oc3ccc(C(=O)Nc4ccc(-c5ccc(NC(=O)c6ccc(*)cc6)cc5C(F)(F)F)c(C(F)(F)F)c4)cc3)cc2)cc1` (repeat unit) displayed a glass transition temperature of 250.00 °C.

Consider `*Oc1ccc(C(C)(C)c2ccc(Oc3ccc(C(=O)Nc4cccc(NC(=O)c5ccc(*)cc5)c4)cc3)cc2)cc1` (repeat unit), for which the glass transition temperature came to 214.00 °C.

For `*Oc1ccc(C(C)(C)c2ccc(Oc3ccc(C(=O)c4c(C(=O)c5ccc(*)cc5)c(-c5ccc(F)cc5)c(-c5ccc(F)cc5)c(-c5ccc(F)cc5)c4-c4ccc(F)cc4)cc3)cc2)cc1` (repeat unit), the glass transition temperature was 252.00 °C.

The compound `*Oc1ccc(C(C)(C)c2ccc(Oc3ccc(C(=O)c4ccc(-c5ccc(C(=O)c6ccc(*)cc6)cc5)cc4)cc3)cc2)cc1` (repeat unit) came in with a glass transition temperature of 186.00 °C.

With `*Oc1ccc(C(C)(C)c2ccc(Oc3ccc(C(=O)c4ccc(C(=O)c5ccc(*)c(C(F)(F)F)c5)cc4)cc3C(F)(F)F)cc2)cc1` (repeat unit), the glass transition temperature is 171.00 °C.

Compound `*Oc1ccc(C(C)(C)c2ccc(Oc3ccc(C(=O)c4ccc(C(C)(C)c5ccc(C(=O)c6ccc(*)cc6)cc5)cc4)cc3)cc2)cc1` (repeat unit) gave a glass transition temperature of 171.00 °C.

`*Oc1ccc(C(C)(C)c2ccc(Oc3ccc(C(=O)c4ccc(Oc5ccc(C(=O)c6ccc(*)cc6)cc5)cc4)cc3)cc2)cc1` (repeat unit): the glass transition temperature was found to be 162.00 °C.

`*Oc1ccc(C(C)(C)c2ccc(Oc3ccc(C(=O)c4ccc(P(=O)(c5ccccc5)c5ccc(C(=O)c6ccc(*)cc6)cc5)cc4)cc3)cc2)cc1` (repeat unit) registered a glass transition temperature of 195.00 °C.

Take `*Oc1ccc(C(C)(C)c2ccc(Oc3ccc(C(=O)c4ccc5cc(C(=O)c6ccc(*)cc6)ccc5c4)cc3)cc2)cc1` (repeat unit): the glass transition temperature is 185.00 °C.

The compound `*Oc1ccc(C(C)(C)c2ccc(Oc3ccc(C(O)C(O)c4ccc(*)cc4)cc3)cc2)cc1` (repeat unit) displayed a glass transition temperature of 151.00 °C.

`*Oc1ccc(C(C)(C)c2cccc(C(C)(C)c3ccc(Oc4ccc(C(=O)Nc5ccc(NC(=O)c6ccc(*)cc6)cc5)cc4)cc3)c2)cc1` (repeat unit) yielded a glass transition temperature of 154.00 °C.

`*Oc1ccc(C2(c3ccc(Oc4ccc(C(=O)c5ccc(*)cc5)cc4)c(C)c3)CCC3CCCCC3C2)cc1C` (repeat unit) showed a glass transition temperature of 201.00 °C.

The compound `*Oc1ccc(NC(=O)c2ccc(Oc3ccc(C(C)(C)c4ccc(C(C)(C)c5ccc(Oc6ccc(C(=O)Nc7ccc(*)cc7)cc6)cc5)cc4)cc3)cc2)cc1` (repeat unit) came in with a glass transition temperature of 174.00 °C.

Regarding `*Oc1ccc(NC(=O)c2ccc(Oc3ccc(C(C)(C)c4ccc(C(C)(C)c5ccc(Oc6ccc(C(=O)Nc7ccc(Oc8ccc(-c9ccc(*)cc9)cc8)cc7)cc6)cc5)cc4)cc3)cc2)cc1` (repeat unit), the glass transition temperature is 177.00 °C.

Take `*Oc1ccc(NC(=O)c2ccc(Oc3ccc(C(C)(C)c4cccc(C(C)(C)c5ccc(Oc6ccc(C(=O)Nc7ccc(Oc8ccc(-c9ccc(*)cc9)cc8)cc7)cc6)cc5)c4)cc3)cc2)cc1` (repeat unit): the glass transition temperature came to 167.00 °C.

`*Oc1ccc(Oc2ccc(NC(=O)c3ccc(Oc4ccc(C(C)(C)c5ccc(C(C)(C)c6ccc(Oc7ccc(C(=O)Nc8ccc(*)cc8)cc7)cc6)cc5)cc4)cc3)cc2)cc1` (repeat unit): the glass transition temperature came out at 165.00 °C.

`*Oc1ccc(S(=O)(=O)c2ccc(Oc3ccc(/C=C/c4ccc(*)cc4)cc3)cc2)cc1` (repeat unit) had a glass transition temperature of 234.50 °C.

In turn, `*Oc1ccc(S(=O)(=O)c2ccc(Oc3ccc(/C=N/N=C/c4ccc(*)cc4)cc3)cc2)cc1` (repeat unit) came in with a glass transition temperature of 151.00 °C.

In the case of `*Oc1ccc(S(=O)(=O)c2ccc(Oc3ccc(/C=N/c4ccc(Oc5ccc(-c6ccc(Oc7ccc(/N=C/c8ccc(*)cc8)cc7)cc6)cc5)cc4)cc3)cc2)cc1` (repeat unit), the glass transition temperature came to 127.00 °C.

Turning to `*Oc1ccc(S(=O)(=O)c2ccc(Oc3ccc(/N=C/c4ccc(*)cc4)cc3)cc2)cc1` (repeat unit), the glass transition temperature was determined as 110.00 °C.

`*Oc1ccc(S(=O)(=O)c2ccc(Oc3ccc(NC(=O)c4ccc(Oc5ccc(C(C)(C)c6cccc(C(C)(C)c7ccc(Oc8ccc(C(=O)Nc9ccc(*)cc9)cc8)cc7)c6)cc5)cc4)cc3)cc2)cc1` (repeat unit) gave a glass transition temperature of 167.00 °C.

Turning to `*Oc1ccc(S(=O)c2ccc(Oc3ccc(/C=N/N=C/c4ccc(*)cc4)cc3)cc2)cc1` (repeat unit), the glass transition temperature came out at 151.00 °C.

As for `*Oc1cccc(NC(=O)c2ccc(Oc3ccc(C(C)(C)c4cccc(C(C)(C)c5ccc(Oc6ccc(C(=O)Nc7ccc(*)cc7)cc6)cc5)c4)cc3)cc2)c1` (repeat unit), the glass transition temperature was found to be 147.00 °C.

`*Oc1cccc2ccc(Oc3ccc(NC(=O)c4ccc(Oc5ccc(C(C)(C)c6cccc(C(C)(C)c7ccc(Oc8ccc(C(=O)Nc9ccc(*)cc9)cc8)cc7)c6)cc5)cc4)cc3)cc12` (repeat unit): the glass transition temperature turned out to be 139.00 °C.

On to `*c1ccc(Oc2ccc(-c3nnc(*)o3)cc2)cc1` (repeat unit), for which the glass transition temperature was determined as 240.00 °C.

With `*c1ccc(Oc2ccc(-n3c(=O)c4c(Oc5ccc(OCCCCCCCC)cc5)c5c(=O)n(*)c(=O)c5c(Oc5ccc(OCCCCCCCC)cc5)c4c3=O)cc2)cc1` (repeat unit), the glass transition temperature came to 234.50 °C.

For `*c1ccc(Oc2ccc(-n3nc(-c4ccccc4)cc3-c3ccc(-c4cc(-c5ccccc5)nn4*)cc3)cc2)cc1` (repeat unit), the glass transition temperature came to 260.00 °C.

With `*c1ccc(Oc2ccc(-n3nccc3-c3ccc(-c4ccnn4*)cc3)cc2)cc1` (repeat unit), the glass transition temperature is 243.00 °C.

On to `*c1ccc(Oc2ccc(C(=O)c3ccc(Oc4ccc(C5(*)c6ccccc6C(=O)N5C)cc4)cc3)cc2)cc1` (repeat unit), for which the glass transition temperature is 245.00 °C.

In turn, `*c1ccc(Oc2ccc(C(=O)c3cccc(C(=O)c4ccc(Oc5ccc(-c6c7c(c(*)c8ccccc68)C(=O)N(CCCCCCCCCCCC)C7=O)cc5)cc4)c3)cc2)cc1` (repeat unit) yielded a glass transition temperature of 140.00 °C.

`*c1ccc(Oc2ccc(C(C)(C)c3ccc(Oc4ccc(-c5nnc(*)n5-c5ccc(S(C)(=O)=O)cc5)cc4)cc3)cc2)cc1` (repeat unit) came in with a glass transition temperature of 230.00 °C.

The compound `*c1ccc(Oc2ccc(C(C)(C)c3ccc(Oc4ccc(-c5nnc(*)n5-c5cccc(C(F)(F)F)c5)cc4)cc3)cc2)cc1` (repeat unit) gave a glass transition temperature of 190.00 °C.

Regarding `*c1ccc(Oc2ccc(C(C)(C)c3ccc(Oc4ccc(-c5nnc(*)n5-c5ccccc5)cc4)cc3)cc2)cc1` (repeat unit), the glass transition temperature was found to be 207.00 °C.

`*c1ccc(Oc2ccc(C(C)(C)c3cccc(C(C)(C)c4ccc(Oc5ccc(-n6c(=O)c7cc8c(=O)n(*)c(=O)c8cc7c6=O)cc5)cc4)c3)cc2)cc1` (repeat unit) displayed a glass transition temperature of 249.47 °C.

`*c1ccc(Oc2ccc(C(C)(C)c3ccccc3)cc2)c(N2C(=O)c3ccc(-c4ccc5c(c4)C(=O)N(*)C5=O)cc3C2=O)c1` (repeat unit) returned a glass transition temperature of 275.00 °C.

With `*c1ccc(Oc2ccc(C(C)(c3ccccc3)c3ccc(Oc4ccc(-c5nc(-c6ccccn6)nnc5*)cc4)cc3)cc2)cc1` (repeat unit), the glass transition temperature came out at 232.00 °C.

The compound `*c1ccc(Oc2ccc(C(c3ccc(Oc4ccc(-c5ncc(*)o5)cc4C(F)(F)F)cc3)(C(F)(F)F)C(F)(F)F)cc2)c(C(F)(F)F)c1` (repeat unit) gave a glass transition temperature of 205.00 °C.

`*c1ccc(Oc2ccc(C(c3ccc(Oc4ccc(-c5nnc(*)n5-c5cccc(C(F)(F)F)c5)cc4)cc3)(C(F)(F)F)C(F)(F)F)cc2)cc1` (repeat unit) showed a glass transition temperature of 185.00 °C.

`*c1ccc(Oc2ccc(C(c3ccc(Oc4ccc(-n5c(=O)c6cc7c(=O)n(*)c(=O)c7cc6c5=O)cc4C(F)(F)F)cc3)(C(F)(F)F)C(F)(F)F)cc2)c(C(F)(F)F)c1` (repeat unit) came in with a glass transition temperature of 253.00 °C.
